Reference: patent publication US20260207659A1, “COMPOSITIONS FOR USE IN THE PROPHYLACTIC TREATMENT OF HYPOCALCEMIA IN A RUMINANT ANIMAL” (VILOFOSS A/S, priority 2022, published 2026)
Several values for one entry are separate records, joined by “and”; a condition that tells them apart may be missing. Equal values may be shown once. Read-outs that look alike come from different tables or passages of the source.

Experiment: In vitro phosphorus binding efficacy in rumen fluid, three phases mimicking the digestive tract of a ruminant (Thilsing et al.)
Design: species or system ruminant animal; Phosphate binding in comparison to control, % / P binding in comparison to control, %: concentration or dose not given beside the values
[1] = Table 1, from free phosphate, relative to Zeolite 4A
[2] = Table 1, from free phosphate, relative to untreated control
[3] = Table 2, phase 3 binding capacity, relative to Zeolite 4A
[4] = Table 2, phase 3 binding capacity, relative to control
[5] = phase 3 (after HCl and HCO3-, mimicking small intestine)
[6] = statement in words on Tables 1 and 2
[7] = supernatant of rumen fluid after addition of HCl and HCO3-, 0.06 g compound/8 ml rumen fluid

Compound | Free Phosphate | P binding in comparison to control, % | Phosphate Binding Capacity | Phosphate binding in comparison to 4A, % | Phosphate binding in comparison to control, % | Phosphorus binding compared to other compounds, including Zeolite 4A alone | Phosphate binding in comparison to 4A, % [1] | Phosphate binding in comparison to control, % [2] | Phosphate binding in comparison to 4A, % [3] | P binding in comparison to control, % [4] | Phosphate Binding Capacity [5] | Phosphorus binding compared to other compounds, including Zeolite 4A alone [6] | Free Phosphate [7]
O=S(=O)([O-])[O-].[Fe+2] [Iron (II) sulphate] | 8.2 mmol | 75% | 69.3 mg Phosphate/gram of compound | 36.5% and 56% | 58.3% | superior |  |  |  |  |  |  | 
[Cl][La]([Cl])[Cl] [Lanthanum chloride] |  |  |  |  |  |  | 51.1% | 67.9% | 62% | 79% | 72.8 mg Phosphate/gram of compound | superior | 6.3 mmol
[Cl][Al]([Cl])[Cl] [Aluminium chloride] |  |  |  |  |  |  | 45.6% | 64.3% | 94% | 96% | 88.9 mg Phosphate/gram of compound | superior | 7.0 mmol
O=C([O-])[O-].O=C([O-])[O-].O=C([O-])[O-].[La+3].[La+3] [Lanthanum carbonate, hydrated, reference compound] |  |  |  |  |  |  | 22.6% | 49.2% | 72% | 84% | 77.7 mg Phosphate/gram of compound | superior | 10.0 mmol
